From patent publication US12570631B2, “Substituted N-(4-(pyrimidin and pyridin-4-yl)benzylcarboxamides and its use for treating disorders responsive to inhibition of Btk” (BIOGEN MA INC., priority 2019, dated 2026)

How the values were obtained:
BTK = BTK (Homo sapiens (Human), UniProt Q06187); assay: In vitro BTK kinase assay: Btk-PolyGAT-LS assay; format: biochemical; conditions: ATP 10 μM, polyGAT 100 nM, BTK 0.25 nM, 30 minutes
[1] = tested on: CD69 expression on CD19+ B cells in human whole blood; assay: In vitro whole blood CD69 assay; format: cell-based; conditions: B-cell; Whole Blood CD69 inhibition; human heparinized blood, anti-human IgD stimulation, CD19+ B cells expressing CD69; read-out: IC50

Sequence of BTK (Q06187 whole entry): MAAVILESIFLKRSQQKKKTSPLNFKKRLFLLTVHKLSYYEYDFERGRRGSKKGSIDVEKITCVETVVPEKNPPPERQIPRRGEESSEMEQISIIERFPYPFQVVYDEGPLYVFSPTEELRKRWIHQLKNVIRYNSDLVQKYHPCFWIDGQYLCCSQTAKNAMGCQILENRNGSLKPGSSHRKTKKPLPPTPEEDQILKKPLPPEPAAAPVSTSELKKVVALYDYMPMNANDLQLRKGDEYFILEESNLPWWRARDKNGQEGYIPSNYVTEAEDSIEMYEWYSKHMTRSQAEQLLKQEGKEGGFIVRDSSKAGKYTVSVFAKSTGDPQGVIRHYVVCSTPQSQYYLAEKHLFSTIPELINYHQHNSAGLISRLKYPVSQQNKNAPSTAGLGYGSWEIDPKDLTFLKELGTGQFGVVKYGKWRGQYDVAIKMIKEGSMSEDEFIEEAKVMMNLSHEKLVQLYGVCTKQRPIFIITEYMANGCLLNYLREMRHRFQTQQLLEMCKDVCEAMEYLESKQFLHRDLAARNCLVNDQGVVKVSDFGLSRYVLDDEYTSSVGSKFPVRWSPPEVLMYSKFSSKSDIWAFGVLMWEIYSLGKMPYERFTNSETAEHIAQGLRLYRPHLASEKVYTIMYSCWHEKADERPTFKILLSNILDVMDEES

SMILES	IC50 (BTK) [nM]	IC50 [1] [nM]
C=CC(=O)N(C)CCOc1c(N)ncnc1-c1ccc(CNC(=O)c2cnn(C(C)(C)C)c2)c(C)c1 [Example 10, N-(4-(6-amino-5-(2-(N-methylacrylamido)ethoxy)pyrimidin-4-yl)-2-methylbenzyl)-1-(tert-butyl)-1H-pyrazole-4-carboxamide]	< 1	< 100
C=CC(=O)N1CCC(COc2cnccc2-c2ccc(CNC(=O)c3cn(C(C)(C)C)nn3)c(C)c2F)C1 (stereo not shown) [Example 51, N-(4-(3-((1-acryloylpyrrolidin-3-yl)methoxy)pyridin-4-yl)-3-fluoro-2-methylbenzyl)-1-(tert-butyl)-1H-1,2,3-triazole-4-carboxamide]	< 1	–
C=CC(=O)N1CC[C@H]1COc1cnccc1-c1ccc(CNC(=O)c2ccc(C(F)(F)F)nc2)c(C)c1 [Example 52, (S)-N-(4-(3-((1-acryloylazetidin-2-yl)methoxy)pyridin-4-yl)-2-methylbenzyl)-6-(trifluoromethyl)nicotinamide]	> 10	–
C=CC(=O)N(C)CCOc1cnccc1-c1ccc(CNC(=O)c2noc(C(C)(C)C)n2)c(C(F)(F)F)c1 [Example 14, 5-(tert-butyl)-N-(4-(3-(2-(N-methylacrylamido)ethoxy)pyridin-4-yl)-2-(trifluoromethyl)benzyl)-1,2,4-oxadiazole-3-carboxamide]	< 1	–
C=CC(=O)N1CCC(Oc2cnccc2-c2ccc(CNC(=O)c3cn(C(C)(C)C)nn3)c(C)c2)C1 (stereo not shown) [Example 34, N-(4-(3-((1-acryloylpyrrolidin-3-yl)oxy)pyridin-4-yl)-2-methylbenzyl)-1-(tert-butyl)-1H-1,2,3-triazole-4-carboxamide]	> 10	–
C=CC(=O)N(C)CCOc1cnccc1-c1ccc(CNC(=O)c2ccn(C(C)(C)C)n2)c(Cl)c1F [Example 15, 1-(tert-butyl)-N-(2-chloro-3-fluoro-4-(3-(2-(N-methylacrylamido)ethoxy)pyridin-4-yl)benzyl)-1H-pyrazole-3-carboxamide]	1 to 10	–
C=CC(=O)N(C)CC(=O)Nc1cncnc1-c1ccc(CNC(=O)c2cn(C(C)(C)C)nn2)c(C)c1 [Example 29, 1-(tert-butyl)-N-(2-methyl-4-(5-(2-(N-methylacrylamido)acetamido)pyrimidin-4-yl)benzyl)-1H-1,2,3-triazole-4-carboxamide]	< 1	–
C=CC(=O)N(C)CCOc1cnccc1-c1ccc(CNC(=O)c2cc(C(C)(C)C)on2)c(C)c1 [Example 16, 5-(tert-butyl)-N-(2-methyl-4-(3-(2-(N-methylacrylamido)ethoxy)pyridin-4-yl)benzyl)isoxazole-3-carboxamide]	< 1	–
C=CC(=O)N(C)CCOc1cnccc1-c1ccc(CNC(=O)c2cc(C(C)(C)C)on2)c(F)c1F [Example 17, 5-(tert-butyl)-N-(2,3-difluoro-4-(3-(2-(N-methylacrylamido)ethoxy)pyridin-4-yl)benzyl)isoxazole-3-carboxamide]	< 1	–
C=CC(=O)N(C)CCOc1cnccc1-c1ccc(CNC(=O)c2noc(C(C)(C)C)n2)cc1F [Example 13, 5-(tert-butyl)-N-(3-fluoro-4-(3-(2-(N-methylacrylamido)ethoxy)pyridin-4-yl)benzyl)-1,2,4-oxadiazole-3-carboxamide]	< 1	–
C#CC(=O)N1CCCC1COc1cnccc1-c1ccc(CNC(=O)c2cn(C(C)(C)C)nn2)c(C)c1F (stereo not shown) [Example 48, 1-(tert-butyl)-N-(3-fluoro-2-methyl-4-(3-((1-propioloylpyrrolidin-2-yl)methoxy)pyridin-4-yl)benzyl)-1H-1,2,3-triazole-4-carboxamide]	1 to 10	–
C=CC(=O)NCC(=O)Nc1cncnc1-c1ccc(CNC(=O)c2cn(C(C)(C)C)nn2)c(C)c1 [Example 30, N-(4-(5-(2-acrylamidoacetamido)pyrimidin-4-yl)-2-methylbenzyl)-1-(tert-butyl)-1H-1,2,3-triazole-4-carboxamide]	1 to 10	–
